Test results reported in paper PMC11239005, “Preclinical studies of RA475, a guanidine-substituted spirocyclic candidate RPN13/ADRM1 inhibitor for treatment of ovarian cancer” (PLOS ONE, 2024).
Values joined by “and” are separate entries in the source; they are usually repeats but may differ in a detail not shown here. Identical values can stand only once. Like-named read-outs stand apart in the source and are kept apart here.

Assay: Single dose plasma pharmacokinetics in CD1 mice
Type: in vivo, mouse
Description: For single dose pharmacokinetic studies, plasma samples (40 μL) were mixed with 200 μL of a water-methanol (1:9, v/v) containing the internal standard elacridar at 80 ng/mL. After mixing by pipetting and centrifuging for 4 min at 5500 x g, 0.25 μL of the supernatant was injected into LC-MS/MS system. […] Mobile phase A was acetonitrile/water (5:95, v/v) containing 1% formic acid, and mobile phase B was acetonitrile containing 0.1% formic acid. The gradient was initiated with mobile phase B at 10% with a flow rate of 0.4 mL/min, increased to 100% over 0.9 min and then and held for 0.1 min, and returned back to 10% mobile phase B and allowed to equilibrate until 2.2 min. An SCIEX 5000 triple quadrupole mass spectrometer operated in positive electrospray ionization mode was used for the detection of RA475. The lower limit of quantitation (LLOQ) in plasma was 10 ng/mL.
Pharmacokinetic parameters were calculated from mean concentration-time data using non-compartmental methods in Phoenix WinNonlin version 8.3 (Certara, Princeton, NJ). Concentrations after the time 0 sample that were below the LLOQ were imputed with ½ that value (1 ng/mL). Any concentration that was determined to be an outlier by the Grubbs’s outlier test were excluded from analysis. The maximum plasma concentration (Cmax) and time to Cmax (Tmax) were the observed values. The AUClast was calculated using the log-linear trapezoidal method. AUC was extrapolated to infinity (AUCINF) by dividing the last quantifiable concentration by the terminal disposition rate constant (λz). The λz was determined from at least 3 points on the slope of the terminal phase of the concentration-time profile. The terminal half-life (T1/2) was determined by dividing 0.693 by λz. Clearance (Cl) or apparent Cl (Cl/F) was calculated by dividing the dose administered by AUCINF. Volume of distribution (V) or apparent V (V/F) was calculated by dividing Cl or Cl/F by λz. […] The oral and IP bioavailability was calculated as: F(%)=DoseIV×AUCINFPO/DosePO×[…].100%
The Method of Bailer was used to estimate the variance of AUC given the calculated variance of the mean concentration at each time point. A pairwise comparison utilizing Z test was used to determine whether there was a significant difference between RA475 exposures as expressed by AUC last. Additionally, the Up284 exposure was truncated to 8 h and compared to the same route of administration and exposure as RA475. In all cases, p < 0.05 was considered statistically significant.
CD1 (n = 4 per time point and condition; 8 weeks old, 26.8±3g) mice were administered a single dose of RA475, either IV (10 mg/kg), PO (40 mg/kg), or IP (40 mg/kg), and thereafter serial blood plasma samples were analyzed for RA475 levels by LC–MS/MS. The animals were randomly assigned to the treatment groups (S9 Table) and fasted for 4 h before dosing. Eight time points for IV and IP (0.083, 0.25, 0.5, 1, 2, 4, 6, and 8 h) and seven time points for PO (0.25, 0.5, 1, 2, 4, 6, and 8) administration were set for this pharmacokinetic study. Mice were injected IP with 2,2,2-tribromoethanol at the dose of 150 mg/kg prior to drawing the blood in microtainers containing K3EDTA via retro-orbital bleeding. Blood samples were centrifuged 10 min at 3000 rpm. All samples were immediately processed, flash-frozen and stored at -70°C until subsequent analysis. No obvious adverse effects were observed during this PK study. The average RA475 plasma concentrations data for IV, IP, and PO dosed groups (S10–S12 Tables) is graphically presented in Fig 4, and may be compared to published data for Up284 [37]. Pharmacokinetic parameters were calculated from mean concentration-time data using non-compartmental methods in Phoenix WinNonlin version 8.3 (Certara, Princeton, NJ) (S13 Table). Using the Method of Bailer, there was no difference in dose normalized AUClast by any route of administration of RA475.

[1] = male, CD1, mouse, plasma, ip, 40 mg/kg, IP 40 mg/Kg
[2] = male, CD1, mouse, plasma, po, 40 mg/kg, PO 40 mg/Kg
[3] = male, CD1, mouse, plasma, IP 40 mg/kg
[4] = male, CD1, mouse, plasma, IV 10 mg/kg
[5] = male, CD1, mouse, plasma, PO 40 mg/kg

Q: Which concentration at 360 min (CD1, mouse, plasma, ip, 40 mg/kg, IP 40 mg/Kg, 360 min, read-out: Plasma concentration, Group A-D) does the source give for `Cl.Cl.N#Cc1ccc(/C=C2/C(=O)/C(=C/c3ccc(C#N)cc3)C23CCN(C(=N)N)CC3)cc1` [RA475, 1,3-bis((E)-4-cyanobenzylidene)-2-oxo-7-azaspiro[3.5]nonane-7-carboximidamide dihydrochloride] here?
A: 327 ng/mL

Q: And the bioavailability (CD1, mouse, plasma, IP 40 mg/kg)?
A: 103%

Q: And the bioavailability (CD1, mouse, plasma, PO 40 mg/kg)?
A: 1.1%

Q: What about the “Plasma concentration, Group A-D” value (IP 40 mg/Kg, 240 min, 40 mg/kg) of the same compound?
A: 484 ng/mL and 577 ng/mL and 614 ng/mL

Q: What about the “Plasma concentration, Group A-D” value (IP 40 mg/Kg, 480 min, 40 mg/kg) of the same compound?
A: 118 ng/mL and 174 ng/mL and 125 ng/mL

Q: What about the “Plasma concentration, Group A-D” value (PO 40 mg/Kg, 30 min, 40 mg/kg) of the same compound?
A: 60 ng/mL and 57 ng/mL and 52 ng/mL

Q: What about the “Plasma concentration, Group A-D” value (PO 40 mg/Kg, 60 min, 40 mg/kg) of the same compound?
A: 33 ng/mL and 35 ng/mL and 44 ng/mL

Q: What about the “Plasma concentration, Mean” value (PO 40 mg/Kg, 240 min) of the same compound?
A: BQL

Q: What about the “Plasma concentration, Mean” value (PO 40 mg/Kg, 360 min) of the same compound?
A: BQL

Q: And the “Plasma concentration, Group A-D” value (PO 40 mg/Kg, 360 min, LLOQ 10 ng/mL)?
A: BQL

Q: And the “Plasma concentration, Mean” value (PO 40 mg/Kg, 480 min)?
A: BQL

Q: What about the “Plasma concentration, Group A-D” value (PO 40 mg/Kg, 480 min, LLOQ 10 ng/mL) of the same compound?
A: BQL

Q: What about the “dose-normalized Cmax, fold higher than Up284” value (RA475 vs Up284) of the same compound?
A: 2.3 fold

Q: What about the concentration at 15 min [1] of the same compound?
A: 11500 ng/mL

Q: What about the concentration at 30 min (male, CD1, mouse, plasma, ip, 40 mg/kg, IP 40 mg/Kg, 30 min, read-out: Plasma concentration, Mean) of the same compound?
A: 9350 ng/mL

Q: What about the concentration at 60 min (male, CD1, mouse, plasma, ip, 40 mg/kg, IP 40 mg/Kg, 60 min, read-out: Plasma concentration, Mean) of the same compound?
A: 3580 ng/mL

Q: And the concentration at 120 min [1]?
A: 969 ng/mL

Q: And the concentration at 240 min (male, CD1, mouse, plasma, ip, 40 mg/kg, IP 40 mg/Kg, 240 min, read-out: Plasma concentration, Group A-D)?
A: 356 ng/mL

Q: And the concentration at 240 min (male, CD1, mouse, plasma, ip, 40 mg/kg, IP 40 mg/Kg, 240 min, read-out: Plasma concentration, Mean)?
A: 508 ng/mL

Q: And the concentration at 360 min (male, CD1, mouse, plasma, ip, 40 mg/kg, IP 40 mg/Kg, 360 min, read-out: Plasma concentration, Mean)?
A: 125 ng/mL

Q: What about the concentration at 480 min (male, CD1, mouse, plasma, ip, 40 mg/kg, IP 40 mg/Kg, 480 min, read-out: Plasma concentration, Group A-D) of the same compound?
A: 105 ng/mL

Q: What about the concentration at 480 min (male, CD1, mouse, plasma, ip, 40 mg/kg, IP 40 mg/Kg, 480 min, read-out: Plasma concentration, Mean) of the same compound?
A: 131 ng/mL

Q: What about the concentration at 15 min [2] of the same compound?
A: 141 ng/mL

Q: And the concentration at 30 min (male, CD1, mouse, plasma, po, 40 mg/kg, PO 40 mg/Kg, 30 min, read-out: Plasma concentration, Group A-D)?
A: 69 ng/mL

Q: What about the concentration at 30 min (male, CD1, mouse, plasma, po, 40 mg/kg, PO 40 mg/Kg, 30 min, read-out: Plasma concentration, Mean) of the same compound?
A: 60 ng/mL

Q: What about the concentration at 60 min (male, CD1, mouse, plasma, po, 40 mg/kg, PO 40 mg/Kg, 60 min, read-out: Plasma concentration, Group A-D) of the same compound?
A: 29 ng/mL

Q: What about the concentration at 60 min (male, CD1, mouse, plasma, po, 40 mg/kg, PO 40 mg/Kg, 60 min, read-out: Plasma concentration, Mean) of the same compound?
A: 35 ng/mL

Q: What about the concentration at 120 min [2] of the same compound?
A: 20 ng/mL

Q: What about the concentration at 240 min (male, CD1, mouse, plasma, po, 40 mg/kg, PO 40 mg/Kg, 240 min, LLOQ 10 ng/mL, read-out: Plasma concentration, Group A-D) of the same compound?
A: 20 ng/mL

Q: And the AUC(0-t) [3]?
A: 11300 ng·h/mL

Q: What about the Cmax [3] of the same compound?
A: 11500 ng/mL

Q: And the Tmax [3]?
A: 15 min

Q: And the AUC(0-inf) [4]?
A: 2780 ng·h/mL

Q: What about the AUC(0-t) [4] of the same compound?
A: 2730 ng·h/mL

Q: What about the Cmax [4] of the same compound?
A: 10500 ng/mL

Q: What about the half-life [4] of the same compound?
A: 126 min

Q: And the AUC(0-inf) [5]?
A: 139 ng·h/mL

Q: And the AUC(0-t) [5]?
A: 118 ng·h/mL

Q: And the Cmax [5]?
A: 142 ng/mL

Q: And the Tmax [5]?
A: 15 min

Q: And the half-life [5]?
A: 96 min

Q: What about the CL/F (male, CD1, mouse, plasma, PO 40 mg/kg, read-out: Cl or Cl/F (converted)) of the same compound?
A: 4810 mL/min/kg

Q: And the Tmax (mouse, plasma, IV 10 mg/kg, male CD1 mice)?
A: 4.98 min

Q: And the “Cl or Cl/F” value (plasma, IV 10 mg/kg)?
A: 3.6 mL/min/kg

Q: What about the “V or V/F” value (plasma, IV 10 mg/kg) of the same compound?
A: 10.9 L/kg

Q: And the “V or V/F” value (plasma, PO 40 mg/kg)?
A: 668.1 L/kg
